This note sets out measurements from ChEMBL document CHEMBL1151467, “Antimicrobial resistance genes associated with Salmonella enterica serovar newport isolates from food animals” (2008).

Experiment [1] deals with Salmonella enterica subsp. enterica. The experiment in a line: Antibacterial activity against blaCMY-expressing Salmonella enterica subsp. enterica serovar Newport isolated from food animals. Format: functional.
Experiment [2] shares this test system. The experiment can be described thus: Antibacterial activity against aacC-expressing Salmonella enterica subsp. enterica serovar Newport isolated from food animals. Format: functional, organism-based.
For experiment [3] the test system is unchanged. The experiment in a line: Antibacterial activity against susceptible Salmonella enterica subsp. enterica serovar Newport isolated from food animals. It counts as functional, organism-based.

In brackets after ≈: the same amount, converted by molar mass.

As usually defined, the MIC is the least concentration at which growth counts as inhibited. A lower MIC goes with a more susceptible organism. Molecule `CO/N=C(\C(=O)N[C@@H]1C(=O)N2C(C(=O)O)=C(CSc3nc(=O)c(O)nn3C)CS[C@H]12)c1csc(N)n1` [CEFTRIAXONE] displayed an MIC in experiment [1] of 16 µg/mL (≈ 28.9 µM). Regarding GENTAMICIN, the MIC is 1 µg/mL in experiment [2] and less than 0.25 µg/mL in experiment [3].
